Measurements reported in patent publication US20040121941A1, “Novel inhibitors of prenylated pyrophosphate consuming enzymes” (priority 1999, published 2004).

Target: T1, protein:geranylgeranyl transferase-1 (PGGT-1) (Bos taurus, UniProt Q5EAD5)
T1 construct: A crude PGGT-1 preparation was isolated from bovine brain; from tissue; host or cells: bovine brain
Assay: Protein:geranylgeranyl transferase-1 (PGGT-1) activity assay, [3H]-GGPP and sepharose-coupled peptide pepCsep
Format: biochemical
Conditions: PGGT activity in % of control (without analogue), bovine brain enzyme, Table I
Description: PFT activity was determined using a C-terminal peptide of pre-p21^N-ras coupled to sepharose beads as substrate (pepAsep) as described previously (Cohen et al. Biochem. Pharmacol. 57 (1999), 365-373). The experimental conditions (25 μL reaction mixture) were as follows: 80 pmol/25 μL sepharose-coupled peptide, 0.7 μM of [^3H]-FPP (American Radiolabeled Chemicals Inc.; specific radioactivity 15 Ci/mmol) and 13 μL of rat brain enzyme preparation. Incubation was performed at 37° C. for 30 min. For the determination of IC50 values of the FPP analogues, the assay was performed three times in the presence of different concentrations of compound 5 (example 1) in duplicate. Determination of PGGT-1 activity was performed in a similar manner as described for PFT activity and has also been described previously (Cohen et al. Biochem. Pharmacol. 57 (1999), 365-373). […] The experimental conditions were as follows: 25 μL incubation mixture contained 2.5 μL (1 nmol) pepCsep, 1 μM [^3H]-GGPP (American Radiolabeled Chemicals Inc.; specific radioactivity 15 Ci/mmol), 3 μL of bovine brain enzyme preparation, 50 μM ZnCl2, 0.5 mM MgCl2, 1 mM dithiothreitol, 0.004% Triton X-100, 50 mM Tris-HCl (pH 7.4). […]
The radioactivity bound to the sepharose was strongly dependent on the presence of the cysteine residue in pepCsep and the reaction was linear up to 40 min and up to 5 μL of the enzyme preparation. […]

[Bis(benzyloxycarbonyl)lysyl]-[ε-aminocaproyl]-[β-(nitrophenylaminocarbonyl)-β-alanyl]-[phosphoserine] [compound 378]
relative activity at 10 μM (compound at 10 μM): 36 ± 9% | relative activity at 100 μM (compound at 100 μM): 28 ± 5%
